Laboratory results as given in patent US8765773B2, “Substituted hydroxamic acids and uses thereof” (Millennium Pharmaceuticals, Inc., priority 2010, dated 2014).

molecular target: T1, purified human HDAC6 (Homo sapiens, UniProt Q9UBN7); assay: HDAC6 Enzyme Assay; type: biochemical; conditions: compound concentration 0.37 μM, read-out: Percent Inhibition
T1 construct: purchased BPS Bioscience 5006
T1 sequence (Q9UBN7 1-1215): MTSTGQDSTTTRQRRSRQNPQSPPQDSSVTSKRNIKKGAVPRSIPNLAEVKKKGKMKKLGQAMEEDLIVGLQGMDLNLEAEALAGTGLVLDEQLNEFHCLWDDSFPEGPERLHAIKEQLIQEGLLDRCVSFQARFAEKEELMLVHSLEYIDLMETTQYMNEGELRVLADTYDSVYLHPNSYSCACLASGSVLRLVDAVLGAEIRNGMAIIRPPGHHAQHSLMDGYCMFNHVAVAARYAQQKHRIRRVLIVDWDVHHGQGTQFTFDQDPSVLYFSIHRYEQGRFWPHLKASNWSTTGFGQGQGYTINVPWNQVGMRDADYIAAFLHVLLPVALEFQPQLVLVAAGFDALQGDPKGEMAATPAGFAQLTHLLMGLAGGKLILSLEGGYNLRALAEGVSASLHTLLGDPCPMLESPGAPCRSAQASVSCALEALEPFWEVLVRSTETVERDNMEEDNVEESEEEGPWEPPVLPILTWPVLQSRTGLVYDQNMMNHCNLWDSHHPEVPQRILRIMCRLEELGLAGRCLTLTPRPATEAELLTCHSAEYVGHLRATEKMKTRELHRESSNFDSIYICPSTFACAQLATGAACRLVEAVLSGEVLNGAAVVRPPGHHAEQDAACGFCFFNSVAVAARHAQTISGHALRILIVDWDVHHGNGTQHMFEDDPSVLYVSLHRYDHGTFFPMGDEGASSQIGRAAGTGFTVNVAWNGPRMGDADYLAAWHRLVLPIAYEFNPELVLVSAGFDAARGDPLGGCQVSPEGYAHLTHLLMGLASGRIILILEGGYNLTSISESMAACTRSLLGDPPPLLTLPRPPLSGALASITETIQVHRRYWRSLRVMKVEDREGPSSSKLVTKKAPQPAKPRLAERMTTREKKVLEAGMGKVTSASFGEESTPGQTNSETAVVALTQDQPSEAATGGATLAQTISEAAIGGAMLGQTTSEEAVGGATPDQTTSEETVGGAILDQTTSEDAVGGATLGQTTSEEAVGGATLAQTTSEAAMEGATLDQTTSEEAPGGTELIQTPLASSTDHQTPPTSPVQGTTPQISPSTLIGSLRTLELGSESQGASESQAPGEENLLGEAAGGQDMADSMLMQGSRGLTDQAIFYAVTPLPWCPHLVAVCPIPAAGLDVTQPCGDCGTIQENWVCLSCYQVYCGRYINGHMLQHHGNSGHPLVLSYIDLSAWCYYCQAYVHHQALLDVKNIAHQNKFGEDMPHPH
Summary of the method: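 Purified human HDAC6 incubated 1 h at 30° C with Ac-Arg-Gly-Lys(Ac)-AMC peptide plus compound or DMSO; stopped with trichostatin A. Deacetylated product trypsin-digested, released AMC read by fluorescence (Ex 340/Em 460 nm). Percent inhibition at one concentration or IC50 from curves relative to DMSO controls.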

inhibition at 0.37 µM [%] | Structure (SMILES)
65.5 | O=C(NO)c1ccc2c(=O)n(Cc3ccc(C(F)(F)F)cc3)c(CC3CCCCC3)nc2c1 [Compound I-53, 2-(cyclohexylmethyl)-N-hydroxy-4-oxo-3-[4-(trifluoromethyl)benzyl]-3,4-dihydroquinazoline-7-carboxamide]
84.1 | O=C(NO)c1ccc2ncn(Cc3cccc(-c4cc(C(F)(F)F)cc(C(F)(F)F)c4)c3)c(=O)c2c1 [Compound I-79, 3-{[3′,5′-bis(trifluoromethyl)biphenyl-3-yl]methyl}-N-hydroxy-4-oxo-3,4-dihydroquinazoline-6-carboxamide]
90.4 | O=C(NO)c1ccc2ncn(CCNCc3cccc(-n4cccn4)c3)c(=O)c2c1 [Compound I-332, N-hydroxy-4-oxo-3-(2-{[3-(1H-pyrazol-1-yl)benzyl]amino}ethyl)-3,4-dihydroquinazoline-6-carboxamide]
90.4 | COc1ncccc1-c1cccc(CCn2cnc3ccc(C(=O)NO)cc3c2=O)c1 [Compound I-320, N-hydroxy-3-{2-[3-(2-methoxypyridin-3-yl)phenyl]ethyl}-4-oxo-3,4-dihydroquinazoline-6-carboxamide]
93 | O=C(NO)c1ccc2ccn(-c3ccc(Cl)cc3)c(=O)c2c1 [Compound I-247, 2-(4-chlorophenyl)-N-hydroxy-1-oxo-1,2-dihydroisoquinoline-7-carboxamide]

same assay, conditions: compound concentration 0.412 μM, read-out: Percent Inhibition

inhibition at 0.412 µM [%] | Structure (SMILES)
89.9 | O=C(NO)c1ccc2ccn(CCCC3CCCCC3)c(=O)c2c1 [Compound I-153, 2-(3-cyclohexylpropyl)-N-hydroxy-1-oxo-1,2-dihydroisoquinoline-7-carboxamide]
93 | O=C(NO)c1ccc2[nH]c(=O)n(Cc3ccccc3)c(=O)c2c1 [Compound I-264, 3-benzyl-N-hydroxy-2,4-dioxo-1,2,3,4-tetrahydroquinazoline-6-carboxamide]
71.7 | O=C(NO)c1ccc2[nH]c(=O)n(-c3ccccc3)c(=O)c2c1 [Compound I-123, N-hydroxy-2,4-dioxo-3-phenyl-1,2,3,4-tetrahydroquinazoline-6-carboxamide]
67.1 | O=C(NO)c1ccc2ccn(CCCN3CCCCC3)c(=O)c2c1 [Compound I-170, N-hydroxy-1-oxo-2-(3-piperidin-1-ylpropyl)-1,2-dihydroisoquinoline-7-carboxamide]
97.6 | O=C(NO)c1ccc2ccn(CCOc3ccccc3)c(=O)c2c1 [Compound I-252, N-hydroxy-1-oxo-2-(2-phenoxyethyl)-1,2-dihydroisoquinoline-7-carboxamide]
95.8 | O=C(NO)c1ccc2ccn(Cc3cccc(Cl)c3)c(=O)c2c1 [Compound I-206, 2-(3-chlorobenzyl)-N-hydroxy-1-oxo-1,2-dihydroisoquinoline-7-carboxamide]
95.9 | O=C(NO)c1ccc2ccn(Cc3cccc(F)c3)c(=O)c2c1 [Compound I-109, 2-(3-fluorobenzyl)-N-hydroxy-1-oxo-1,2-dihydroisoquinoline-7-carboxamide]
59.8 | Cc1nc2cc(C(=O)NO)ccc2c(=O)n1C [Compound I-132, N-hydroxy-2,3-dimethyl-4-oxo-3,4-dihydroquinazoline-7-carboxamide]
92.5 | O=C(NO)c1ccc2ccn(CCCOCc3ccccc3)c(=O)c2c1 [Compound I-163, 2-[3-(benzyloxy)propyl]-N-hydroxy-1-oxo-1,2-dihydroisoquinoline-7-carboxamide]
72 | CC(C)n1cnc2cc(C(=O)NO)ccc2c1=O [Compound I-256, N-hydroxy-3-isopropyl-4-oxo-3,4-dihydroquinazoline-7-carboxamide]
97.3 | Cc1ccccc1OCCn1ccc2ccc(C(=O)NO)cc2c1=O [Compound I-149, N-hydroxy-2-[2-(2-methylphenoxy)ethyl]-1-oxo-1,2-dihydroisoquinoline-7-carboxamide]
57.5 | O=C(NO)c1ccc2ccn(CCN(Cc3cccc(C(F)(F)F)c3)Cc3cccc(C(F)(F)F)c3)c(=O)c2c1 [Compound I-253, 2-(2-{bis[3-(trifluoromethyl)benzyl]amino}ethyl)-N-hydroxy-1-oxo-1,2-dihydroisoquinoline-7-carboxamide]
88.1 | CCOCCn1cnc2cc(C(=O)NO)ccc2c1=O [Compound I-276, 3-(2-ethoxyethyl)-N-hydroxy-4-oxo-3,4-dihydroquinazoline-7-carboxamide]
